{"source": "ChEMBL document CHEMBL1201862", "about": "“PubChem BioAssay data set” (2004)", "key": {"Cytochrome P450 2D6": {"biological_target": "Cytochrome P450 2D6 (Homo sapiens, UniProt P10635)", "sequence (P10635 whole entry)": "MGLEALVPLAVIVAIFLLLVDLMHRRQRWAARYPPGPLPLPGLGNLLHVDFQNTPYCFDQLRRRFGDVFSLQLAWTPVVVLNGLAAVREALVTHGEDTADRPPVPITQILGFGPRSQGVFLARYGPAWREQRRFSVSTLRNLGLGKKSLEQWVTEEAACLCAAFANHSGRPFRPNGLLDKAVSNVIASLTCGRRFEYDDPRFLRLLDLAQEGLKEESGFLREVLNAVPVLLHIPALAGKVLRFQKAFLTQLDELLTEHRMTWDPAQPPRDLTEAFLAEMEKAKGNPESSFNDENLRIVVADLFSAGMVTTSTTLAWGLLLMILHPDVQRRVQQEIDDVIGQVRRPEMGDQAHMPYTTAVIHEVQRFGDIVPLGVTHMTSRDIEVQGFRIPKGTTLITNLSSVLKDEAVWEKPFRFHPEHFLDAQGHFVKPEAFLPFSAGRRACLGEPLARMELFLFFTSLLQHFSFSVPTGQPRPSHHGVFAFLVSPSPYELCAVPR"}, "Cytochrome P450 1A2": {"biological_target": "T1, Cytochrome P450 1A2 (Homo sapiens, UniProt P05177)", "T1 sequence (P05177 whole entry)": "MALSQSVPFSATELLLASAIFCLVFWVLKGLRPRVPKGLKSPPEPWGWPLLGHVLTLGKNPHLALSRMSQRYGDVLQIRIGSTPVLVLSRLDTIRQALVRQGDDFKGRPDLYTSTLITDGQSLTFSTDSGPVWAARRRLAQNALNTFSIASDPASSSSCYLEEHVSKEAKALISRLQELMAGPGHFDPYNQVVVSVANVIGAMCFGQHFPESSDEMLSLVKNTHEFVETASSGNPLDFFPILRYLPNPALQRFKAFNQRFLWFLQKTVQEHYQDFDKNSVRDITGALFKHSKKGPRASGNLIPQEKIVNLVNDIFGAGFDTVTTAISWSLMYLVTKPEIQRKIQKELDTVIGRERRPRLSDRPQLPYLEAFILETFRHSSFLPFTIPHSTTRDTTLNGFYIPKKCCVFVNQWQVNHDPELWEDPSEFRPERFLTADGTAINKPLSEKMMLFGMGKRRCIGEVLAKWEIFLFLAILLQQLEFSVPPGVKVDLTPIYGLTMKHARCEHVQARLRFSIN"}, "Cytochrome P450 3A4": {"biological_target": "Cytochrome P450 3A4 (Homo sapiens, UniProt P08684)", "sequence (P08684 whole entry)": "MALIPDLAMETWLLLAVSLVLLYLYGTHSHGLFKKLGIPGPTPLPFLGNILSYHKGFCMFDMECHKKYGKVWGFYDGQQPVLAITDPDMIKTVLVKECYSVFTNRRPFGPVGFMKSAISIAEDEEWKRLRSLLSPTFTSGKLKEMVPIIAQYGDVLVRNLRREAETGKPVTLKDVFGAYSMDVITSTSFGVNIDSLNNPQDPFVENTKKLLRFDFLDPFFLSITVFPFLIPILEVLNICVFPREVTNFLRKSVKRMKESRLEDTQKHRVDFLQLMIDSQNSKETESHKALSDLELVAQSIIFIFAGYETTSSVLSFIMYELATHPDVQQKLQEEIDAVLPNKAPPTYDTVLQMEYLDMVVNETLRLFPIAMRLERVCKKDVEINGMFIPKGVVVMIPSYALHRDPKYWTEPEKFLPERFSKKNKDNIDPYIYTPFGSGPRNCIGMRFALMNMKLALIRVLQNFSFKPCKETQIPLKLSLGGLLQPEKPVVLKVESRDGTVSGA"}, "Cytochrome P450 2C9": {"biological_target": "Cytochrome P450 2C9 (Homo sapiens, UniProt P11712)", "sequence (P11712 whole entry)": "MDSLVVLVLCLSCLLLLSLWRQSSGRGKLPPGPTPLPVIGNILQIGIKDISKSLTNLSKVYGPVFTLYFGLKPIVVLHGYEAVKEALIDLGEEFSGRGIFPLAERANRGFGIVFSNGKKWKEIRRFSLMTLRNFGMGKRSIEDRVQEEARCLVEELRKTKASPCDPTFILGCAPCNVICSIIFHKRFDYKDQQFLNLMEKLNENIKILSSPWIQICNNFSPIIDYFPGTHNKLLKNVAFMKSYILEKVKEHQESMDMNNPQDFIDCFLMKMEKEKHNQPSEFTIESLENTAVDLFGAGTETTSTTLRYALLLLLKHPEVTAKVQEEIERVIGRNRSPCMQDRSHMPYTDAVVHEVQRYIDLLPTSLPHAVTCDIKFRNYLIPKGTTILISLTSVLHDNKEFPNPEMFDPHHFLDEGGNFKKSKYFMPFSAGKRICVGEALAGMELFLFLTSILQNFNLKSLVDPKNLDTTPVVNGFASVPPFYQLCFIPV"}, "[1]": {"test": "NIH-3T3 fibroblast cytotoxicity, dose response, cytotoxicity control, cell-based, fluorescence, Alamar Blue, secondary assay (AID 2327);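 also: NIH-3T3 mouse fibroblasts cultured with fluconazole at 8 µg/mL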", "assay_type": "functional"}, "[2]": {"test": "fluconazole-exposed Candida albicans growth modulators – fluorescence, retest, confirmation (AID 2467)", "assay_type": "functional, cell-based"}, "[3]": {"test_system": "Streptococcus sp. 'group A'", "test": "Streptococcus pyogenes SK(-)GAS viability under kanamycin – luminescence, BacTiterGlo, confirmation, counter-screen for streptokinase expression inhibitor project, dose response (AID 1900)", "assay_type": "functional, organism-based"}, "Streptokinase A": {"biological_target": "T2, Streptokinase A (Streptococcus pyogenes serotype M1, UniProt P10520)", "T2 sequence (P10520 whole entry)": "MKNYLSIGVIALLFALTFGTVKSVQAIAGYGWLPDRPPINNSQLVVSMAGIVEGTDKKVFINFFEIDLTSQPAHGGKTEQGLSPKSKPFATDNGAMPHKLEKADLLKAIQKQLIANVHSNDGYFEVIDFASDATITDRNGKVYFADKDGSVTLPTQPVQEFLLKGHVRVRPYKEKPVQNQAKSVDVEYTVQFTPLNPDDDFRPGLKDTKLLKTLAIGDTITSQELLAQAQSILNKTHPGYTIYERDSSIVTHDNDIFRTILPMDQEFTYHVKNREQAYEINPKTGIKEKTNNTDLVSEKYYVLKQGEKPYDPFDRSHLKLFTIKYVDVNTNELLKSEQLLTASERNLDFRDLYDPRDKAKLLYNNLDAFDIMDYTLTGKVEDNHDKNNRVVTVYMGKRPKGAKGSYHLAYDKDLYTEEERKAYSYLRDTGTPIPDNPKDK", "test": "viability-normalized secreted streptokinase activity reduction – plasminogen activation absorbance, OD405, dose response (AID 1914);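 also: secreted streptokinase activity via plasminogen activation per viability signal from cell pellet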", "assay_type": "functional, Streptococcus pyogenes M1 GAS"}, "Streptococcus": {"test_system": "Streptococcus", "test": "GAS UMAA2166 growth inhibition – luminescence, BacTiterGlo, counter-screen for streptokinase expression inhibitor project, dose response (AID 1915);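 also: potency for reduction of bacterial viability or growth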", "assay_type": "functional, organism-based"}, "Cytochrome P450 2C19": {"biological_target": "Cytochrome P450 2C19 (Homo sapiens, UniProt P33261)", "sequence (P33261 whole entry)": "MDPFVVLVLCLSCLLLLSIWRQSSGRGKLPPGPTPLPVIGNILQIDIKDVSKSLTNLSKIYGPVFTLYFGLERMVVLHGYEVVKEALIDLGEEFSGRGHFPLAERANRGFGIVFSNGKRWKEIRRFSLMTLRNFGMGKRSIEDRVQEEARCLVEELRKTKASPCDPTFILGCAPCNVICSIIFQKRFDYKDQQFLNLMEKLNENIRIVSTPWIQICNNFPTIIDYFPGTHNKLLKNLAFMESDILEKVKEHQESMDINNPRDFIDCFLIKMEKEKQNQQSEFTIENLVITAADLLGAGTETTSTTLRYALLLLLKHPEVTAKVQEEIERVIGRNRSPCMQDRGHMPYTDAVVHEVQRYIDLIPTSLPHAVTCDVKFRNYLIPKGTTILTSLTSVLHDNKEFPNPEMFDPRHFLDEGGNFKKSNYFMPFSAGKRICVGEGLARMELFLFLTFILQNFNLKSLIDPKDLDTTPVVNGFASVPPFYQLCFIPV", "test": "Cytochrome panel assay with activity outcomes. Panel member name: p450-cyp2c19 Compounds with AC50 equal or less than 10 uM are considered active", "assay_type": "functional"}, "INS1": {"test_system": "INS1", "test": "INS-1E survival protection against cytokine death – cell-based, luminescence, retest, dose response (AID 449756);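 also: cell death triggered by IL-1 beta plus TNF-alpha plus IFN-gamma mixture; protective hits raise ATP signal compared with cytokine alone wells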", "assay_type": "functional", "conditions": "Rattus norvegicus"}}, "note": "Calls of active or inactive are those of the source.", "data": [{"smiles": "CN1CCN(c2ncc3nc(-c4ccccc4)c(=O)n(CCC#N)c3n2)CC1", "values": [{"measurement": "AC50", "setting": "Cytochrome P450 2D6", "result": "25.1 µM (inconclusive)"}, {"measurement": "AC50", "setting": "Cytochrome P450 1A2", "result": "20 µM (inconclusive)"}]}, {"smiles": "CS(=O)(=O)N1CCC2(CCN(Cc3ccncc3)CC2)CC1", "values": [{"measurement": "AC50", "setting": "Cytochrome P450 2D6", "result": "25.1 µM (inconclusive)"}, {"measurement": "AC50", "setting": "Cytochrome P450 3A4", "result": "12.6 µM (inconclusive)"}, {"measurement": "AC50", "setting": "Cytochrome P450 2C9", "result": "31.6 µM (inconclusive)"}]}, {"smiles": "Cc1cnc(CNc2ncncc2-c2ccccc2Cl)cn1", "values": [{"measurement": "AC50", "setting": "Cytochrome P450 2D6", "result": "25.1 µM (inconclusive)"}, {"measurement": "AC50", "setting": "Cytochrome P450 3A4", "result": "0.251 µM (inconclusive)"}]}, {"smiles": "Cc1ccc(C(=O)Cn2cccn2)cc1", "values": [{"measurement": "EC50", "setting": "[1]", "result": "> 160 µM (inconclusive)"}, {"measurement": "EC50", "setting": "[2]", "result": "> 38 µM (not active)"}]}, {"smiles": "Cc1ccc(-n2c(-c3ccccc3)cc(=O)nc2C)cc1", "values": [{"measurement": "AC50", "setting": "Cytochrome P450 2C9", "result": "7.08 µM (inconclusive)"}]}, {"smiles": "COc1cnc(-c2ccccn2)nc1Oc1c(C)cccc1C", "values": [{"measurement": "EC50", "setting": "[3]", "result": "6.39 µM (active)"}, {"measurement": "EC50", "setting": "Streptokinase A", "result": "> 150 µM (not active)"}, {"measurement": "EC50", "setting": "Streptococcus", "result": "> 150 µM (not active)"}]}, {"smiles": "COc1ccc(NC(=O)COC(=O)Cn2c(C)nc3ccccc32)cc1OC", "values": [{"measurement": "AC50", "setting": "Cytochrome P450 2C19; read-out: AC50", "result": "3.55 µM (inconclusive)"}]}, {"smiles": "COc1ccc(NC(=O)N2CCCC3(CCN(C(=O)c4ccc(OC)cc4)CC3)C2)cc1", "values": [{"measurement": "AC50", "setting": "Cytochrome P450 2C9", "result": "39.8 µM (inconclusive)"}]}, {"smiles": "COC(=O)[C@@]1(Cc2ccc(OC)cc2)[C@H]2c3cc(C(=O)N4CCCC4)n(Cc4nc5ccccc5[nH]4)c3C[C@H]2CN1C(=O)c1ccccc1", "values": [{"measurement": "AC50", "setting": "Cytochrome P450 2C19; read-out: AC50", "result": "20 µM (inconclusive)"}]}, {"smiles": "COc1ccc(NS(=O)(=O)c2cccc(NC(=O)CCC(=O)c3ccc(Cl)cc3)c2)cc1", "values": [{"measurement": "EC50", "setting": "[3]", "result": "11.2 µM (active)"}, {"measurement": "EC50", "setting": "Streptokinase A", "result": "> 150 µM (not active)"}, {"measurement": "EC50", "setting": "Streptococcus", "result": "25.3 µM (active)"}]}, {"smiles": "CN1c2ccccc2C(O)=C(C(=O)Nc2ccccc2)S1(=O)=O", "values": [{"measurement": "AC50", "setting": "Cytochrome P450 2C19", "result": "inconclusive"}, {"measurement": "AC50", "setting": "Cytochrome P450 3A4", "result": "39.8 µM (inconclusive)"}]}, {"smiles": "Cn1c(CCN2CCCCC2)nc2cc([N+](=O)[O-])ccc21", "values": [{"measurement": "AC50", "setting": "Cytochrome P450 2C19", "result": "inconclusive"}, {"measurement": "AC50", "setting": "Cytochrome P450 2D6", "result": "14.1 µM (inconclusive)"}]}, {"smiles": "CCc1ccc(OCC(=O)NC(=S)Nc2ccc(F)cc2)c(Br)c1", "values": [{"measurement": "AC50", "setting": "Cytochrome P450 1A2", "result": "3.16 µM (inconclusive)"}, {"measurement": "AC50", "setting": "Cytochrome P450 2C9", "result": "3.16 µM (inconclusive)"}]}, {"smiles": "CCCNC(=O)Cn1cnc2sc(C(=O)Nc3ccc4c(c3)OCO4)c(C)c2c1=O", "values": [{"measurement": "AC50", "setting": "Cytochrome P450 2C19; read-out: AC50", "result": "0.00562 µM (inconclusive)"}, {"measurement": "AC50", "setting": "Cytochrome P450 2D6", "result": "5.01 µM (inconclusive)"}, {"measurement": "AC50", "setting": "Cytochrome P450 3A4", "result": "1.41 µM (inconclusive)"}]}, {"smiles": "N=c1c2ccccc2nc2n1CCCCCCCCCCC2", "values": [{"measurement": "AC50", "setting": "INS1", "result": "9.52 µM (active)"}]}, {"smiles": "COCc1nnc(NC(=O)CCN2C(=O)c3ccccc3C2=O)s1", "values": [{"measurement": "AC50", "setting": "Cytochrome P450 2D6", "result": "17.8 µM (inconclusive)"}, {"measurement": "AC50", "setting": "Cytochrome P450 2C9", "result": "31.6 µM (inconclusive)"}]}, {"smiles": "CCOC(=O)CSc1n[nH]c(-c2cccnc2)n1", "values": [{"measurement": "AC50", "setting": "Cytochrome P450 2C19; read-out: AC50", "result": "11.2 µM (inconclusive)"}, {"measurement": "AC50", "setting": "Cytochrome P450 3A4", "result": "15.8 µM (inconclusive)"}]}, {"smiles": "Oc1c(Br)cc(Br)cc1Oc1ccc(Br)cc1Br", "values": [{"measurement": "EC50", "setting": "[1]", "result": "> 150 µM (inactive)"}, {"measurement": "EC50", "setting": "[3]", "result": "1.33 µM (active)"}, {"measurement": "EC50", "setting": "Streptokinase A", "result": "0.753 µM (active)"}, {"measurement": "EC50", "setting": "[2]", "result": "> 38 µM (not active)"}, {"measurement": "EC50", "setting": "Streptococcus", "result": "2.73 µM (active)"}]}, {"smiles": "O=c1ccc2[nH]cc(C3=CCNCC3)c2[nH]1", "values": [{"measurement": "AC50", "setting": "Cytochrome P450 2C9", "result": "7.94 µM (inconclusive)"}]}, {"smiles": "C/C(=N\\NC(=O)c1cccc(Br)c1)c1ccc(Br)cc1", "values": [{"measurement": "AC50", "setting": "Cytochrome P450 2C19; read-out: AC50", "result": "0.224 µM (inconclusive)"}, {"measurement": "AC50", "setting": "Cytochrome P450 3A4", "result": "28.2 µM (inconclusive)"}]}, {"smiles": "C/C(=N\\O)c1cc(Cl)cc(Cl)c1O", "values": [{"measurement": "EC50", "setting": "[1]", "result": "> 160 µM (inactive)"}, {"measurement": "EC50", "setting": "[2]", "result": "4.41 µM (active)"}]}, {"smiles": "O=C(CNC(=O)c1ccc2c(c1)OCO2)N/N=C/c1cc(Br)ccc1O", "values": [{"measurement": "EC50", "setting": "[3]", "result": "10.1 µM (active)"}, {"measurement": "EC50", "setting": "Streptokinase A", "result": "> 150 µM (not active)"}, {"measurement": "EC50", "setting": "Streptococcus", "result": "25.2 µM (inconclusive)"}, {"measurement": "AC50", "setting": "INS1", "result": "3.36 µM (active)"}]}, {"smiles": "Cc1ccc(-c2nnc(Nc3ccccc3)c3ccccc23)cc1S(=O)(=O)NCC1CCCO1", "note": "(configuration not stated)", "values": [{"measurement": "EC50", "setting": "[1]", "result": "25 µM (active)"}, {"measurement": "EC50", "setting": "[2]", "result": "5.07 µM (active)"}]}, {"smiles": "O=P([O-])([O-])C(Cl)(Cl)P(=O)(O)O.[Na+].[Na+]", "note": "[CLODRONATE DISODIUM]", "values": [{"measurement": "AC50", "setting": "Cytochrome P450 2C19", "result": "inconclusive"}]}, {"smiles": "CN1CCC(=C2c3ccccc3Sc3ccccc32)CC1", "note": "[PIMETHIXENE]", "values": [{"measurement": "AC50", "setting": "Cytochrome P450 2C19; read-out: AC50", "result": "15.8 µM (inconclusive)"}]}, {"smiles": "N#CC(C#N)=Cc1cc(O)c(O)c(O)c1", "note": "[TYRPHOSTIN 25]", "values": [{"measurement": "AC50", "setting": "Cytochrome P450 2C9", "result": "15.8 µM (inconclusive)"}]}]}
